molecular target: T1, human PAH with the R408W mutation (Homo sapiens, UniProt P00439, R408W); test: Cell Based Phenylalanine Flux Assay; conditions: A375 cells expressing R408W PAH; 24 hrs with compound, then 20 µM sepiapterin and 800 µM 13C9,15N-Phenylalanine for 4 hours; 13C-Tyrosine by LC-MS; average where tested multiple times; read-out: AC50;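 note: after compound treatment, cells received sepiapterin plus isotope-labelled Phenylalanine for 4 hours, then labelled Tyrosine in the medium was quantified, 10-point 2-fold dilution series run in duplicate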
T1 construct: expressed in transfected cells
T1 sequence (P00439 1-452 R408W): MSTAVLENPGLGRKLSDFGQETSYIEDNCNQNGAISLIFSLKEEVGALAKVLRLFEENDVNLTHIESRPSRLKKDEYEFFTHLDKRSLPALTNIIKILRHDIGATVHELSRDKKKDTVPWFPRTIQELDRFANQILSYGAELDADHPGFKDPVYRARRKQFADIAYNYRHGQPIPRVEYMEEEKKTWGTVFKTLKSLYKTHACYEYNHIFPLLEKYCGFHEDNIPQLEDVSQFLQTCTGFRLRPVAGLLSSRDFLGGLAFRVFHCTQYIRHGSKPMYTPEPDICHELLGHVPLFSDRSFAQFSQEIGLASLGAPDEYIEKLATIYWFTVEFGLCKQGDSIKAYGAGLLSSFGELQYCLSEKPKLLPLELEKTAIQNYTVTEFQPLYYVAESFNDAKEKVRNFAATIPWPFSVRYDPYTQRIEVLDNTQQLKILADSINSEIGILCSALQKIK

SMILES | AC50 [nM]
Cn1nc(C(F)(F)F)nc1C(=O)N1CCc2[nH]cnc2C1c1cc2cccc(C(F)(F)F)n2n1 (centres unmarked) | 1000 to 5000
CC(C)(O)c1nnc(C(=O)N2CCc3[nH]cnc3C2c2cc3cccc(C(F)F)n3n2)o1 (centres unmarked) | 1000 to 5000
Cc1nc(C(C)(C)O)oc1C(=O)N1CCc2[nH]cnc2C1c1cc2cccc(C)n2n1 (centres unmarked) | 1000 to 5000
Cc1ccn2nc(C3c4nc[nH]c4CCN3C(=O)c3nnc(-c4ccn(C)n4)o3)cc2c1 (centres unmarked) | > 5000
Cn1ccc(-c2nc(C(F)F)c(C(=O)N3CCc4[nH]cnc4C3c3cc4ccccn4n3)o2)n1 (centres unmarked) | > 5000

same assay, conditions: A375 cells expressing human PAH R408W; 24 hrs compound incubation; 13C-Tyrosine by LC-MS; average where tested multiple times; read-out: AC50

SMILES | AC50 [nM]
CC(C)c1cccn2nc([C@H]3c4nc[nH]c4CCN3c3nnc(-c4cccnc4)o3)cc12 [Example 2260, (R)-2-(4-(4-isopropylpyrazolo[1,5-a]pyridin-2-yl)-1,4,6,7-tetrahydro-5H-imidazo[4,5-c]pyridin-5-yl)-5-(pyridin-3-yl)-1,3,4-oxadiazole] | > 5000
Nc1cc(C(=O)N2CCc3[nH]cnc3[C@H]2c2cc3ccccn3n2)n(C(F)F)n1 [Example 2370, (S)-(3-amino-1-(difluoromethyl)-1H-pyrazol-5-yl)(4-(pyrazolo[1,5-a]pyridin-2-yl)-6,7-dihydro-1H-imidazo[4,5-c]pyridin-5(4H)-yl)methanone] | 1000 to 5000
FC(F)(F)c1cccn2nc([C@H]3c4nc[nH]c4CCN3c3ccccn3)cc12 [Example 1871, (R)-5-(pyridin-2-yl)-4-(4-(trifluoromethyl)pyrazolo[1,5-a]pyridin-2-yl)-4,5,6,7-tetrahydro-1H-imidazo[4,5-c]pyridine] | > 5000
O=C(c1cnn2ccccc12)N1CCc2[nH]cnc2[C@H]1c1cc2cccc(Cl)n2n1 [Example 2424, (S)-(4-(7-chloropyrazolo[1,5-a]pyridin-2-yl)-6,7-dihydro-1H-imidazo[4,5-c]pyridin-5(4H)-yl)(pyrazolo[1,5-a]pyridin-3-yl)methanone] | 1000 to 5000
CC(C)c1cccn2nc([C@@H]3c4nc[nH]c4CCN3C(=O)c3nnc(C(C)(C)C)o3)cc12 [Example 1902, (S)-(5-(tert-butyl)-1,3,4-oxadiazol-2-yl)(4-(4-isopropylpyrazolo[1,5-a]pyridin-2-yl)-1,4,6,7-tetrahydro-5H-imidazo[4,5-c]pyridin-5-yl)methanone] | < 500
Fc1ccc(-c2nnc(N3CCc4[nH]cnc4[C@H]3c3cc4ccccn4n3)o2)cc1 [Example 1861, (S)-2-(4-fluorophenyl)-5-(4-(pyrazolo[1,5-a]pyridin-2-yl)-1,4,6,7-tetrahydro-5H-imidazo[4,5-c]pyridin-5-yl)-1,3,4-oxadiazole] | < 500
Cc1cccn2nc([C@@H]3c4nc[nH]c4CCN3C(=O)c3nnc(-c4cnn(C)c4)s3)cc12 [Example 2047, (S)-(5-(1-methyl-1H-pyrazol-4-yl)-1,3,4-thiadiazol-2-yl)(4-(4-methylpyrazolo[1,5-a]pyridin-2-yl)-1,4,6,7-tetrahydro-5H-imidazo[4,5-c]pyridin-5-yl)methanone] | 500 to 1000
Cc1cccn2nc([C@@H]3c4nc[nH]c4CCN3c3nnc(-c4ccc(F)cc4)o3)cc12 [Example 1891, (S)-2-(4-fluorophenyl)-5-(4-(4-methylpyrazolo[1,5-a]pyridin-2-yl)-1,4,6,7-tetrahydro-5H-imidazo[4,5-c]pyridin-5-yl)-1,3,4-oxadiazole] | < 500
Fc1cccnc1-c1nnc(N2CCc3[nH]cnc3[C@H]2c2cc3c(F)cccn3n2)o1 [Example 2289, (S)-2-(4-(4-fluoropyrazolo[1,5-a]pyridin-2-yl)-1,4,6,7-tetrahydro-5H-imidazo[4,5-c]pyridin-5-yl)-5-(3-fluoropyridin-2-yl)-1,3,4-oxadiazole] | < 500
FC(F)(F)c1nnc(N2CCc3[nH]cnc3[C@H]2c2cc3ccccn3n2)o1 [Example 1807, (S)-2-(4-(pyrazolo[1,5-a]pyridin-2-yl)-6,7-dihydro-1H-imidazo[4,5-c]pyridin-5(4H)-yl)-5-(trifluoromethyl)-1,3,4-oxadiazole] | 500 to 1000
FC(F)Oc1cccn2nc([C@H]3c4nc[nH]c4CCN3c3ccc(C(F)(F)F)cn3)cc12 [Example 2273, (R)-4-(4-(difluoromethoxy)pyrazolo[1,5-a]pyridin-2-yl)-5-(5-(trifluoromethyl)pyridin-2-yl)-4,5,6,7-tetrahydro-1H-imidazo[4,5-c]pyridine] | > 5000
c1cnc(N2CCc3[nH]cnc3[C@H]2c2cc3c(C4CC4)cccn3n2)nc1 [Example 2172, (S)-4-(4-cyclopropylpyrazolo[1,5-a]pyridin-2-yl)-5-(pyrimidin-2-yl)-4,5,6,7-tetrahydro-1H-imidazo[4,5-c]pyridine] | < 500

same assay, conditions: A375 cells expressing human R408W PAH; 24 hrs compound incubation; 13C-Tyrosine by LC-MS; average where tested multiple times; read-out: AC50

SMILES | AC50 [nM]
Cc1nc(C(C)(C)O)oc1C(=O)N1CCc2[nH]cnc2[C@H]1c1cc2c(C)cccn2n1 [Example 754, (S)-(2-(2-hydroxypropan-2-yl)-4-methyloxazol-5-yl)(4-(4-methylpyrazolo[1,5-a]pyridin-2-yl)-6,7-dihydro-1H-imidazo[4,5-c]pyridin-5(4H)-yl)methanone] | < 500
O=C(c1nnc(C2CC2)o1)N1CCc2[nH]cnc2[C@H]1c1cc2cc(F)ccn2n1 [Example 1130, (S)-(5-cyclopropyl-1,3,4-oxadiazol-2-yl)(4-(5-fluoropyrazolo[1,5-a]pyridin-2-yl)-6,7-dihydro-1H-imidazo[4,5-c]pyridin-5(4H)-yl)methanone] | 500 to 1000
Cn1cc(-c2nnc(C(=O)N3CCc4[nH]cnc4[C@H]3c3cc4c(F)cccn4n3)o2)cn1 [Example 728, (S)-(4-(4-fluoropyrazolo[1,5-a]pyridin-2-yl)-6,7-dihydro-1H-imidazo[4,5-c]pyridin-5(4H)-yl)(5-(1-methyl-1H-pyrazol-4-yl)-1,3,4-oxadiazol-2-yl)methanone] | < 500
Cc1ccn2nc([C@H]3c4nc[nH]c4CCN3C(=O)c3ocnc3C(F)F)cc2c1 [Example 1005, (R)-(4-(difluoromethyl)oxazol-5-yl)(4-(5-methylpyrazolo[1,5-a]pyridin-2-yl)-6,7-dihydro-1H-imidazo[4,5-c]pyridin-5(4H)-yl)methanone] | < 500
CC(C)(O)c1nc(C(F)F)c(C(=O)N2CCc3[nH]cnc3[C@@H]2c2cc3cc(F)ccn3n2)o1 [Example 1085, (R)-(4-(difluoromethyl)-2-(2-hydroxypropan-2-yl)oxazol-5-yl)(4-(5-fluoropyrazolo[1,5-a]pyridin-2-yl)-6,7-dihydro-1H-imidazo[4,5-c]pyridin-5(4H)-yl)methanone] | 1000 to 5000
Cc1cccn2nc([C@@H]3c4nc[nH]c4CCN3C(=O)c3nnc(-c4ccn(C(F)F)n4)o3)cc12 [Example 822, (S)-(5-(1-(difluoromethyl)-1H-pyrazol-3-yl)-1,3,4-oxadiazol-2-yl)(4-(4-methylpyrazolo[1,5-a]pyridin-2-yl)-6,7-dihydro-1H-imidazo[4,5-c]pyridin-5(4H)-yl)methanone] | < 500
Cc1cccn2nc([C@H]3c4nc[nH]c4CCN3C(=O)c3oc(C(C)(C)O)nc3C(F)F)cc12 [Example 737, (R)-(4-(difluoromethyl)-2-(2-hydroxypropan-2-yl)oxazol-5-yl)(4-(4-methylpyrazolo[1,5-a]pyridin-2-yl)-6,7-dihydro-1H-imidazo[4,5-c]pyridin-5(4H)-yl)methanone] | 1000 to 5000
COCc1ccc2c(C(=O)N3CCc4[nH]cnc4[C@@H]3c3cc4c(C(F)(F)F)cccn4n3)cnn2c1 [Example 1549, (R)-(6-(methoxymethyl)pyrazolo[1,5-a]pyridin-3-yl)(4-(4-(trifluoromethyl)pyrazolo[1,5-a]pyridin-2-yl)-6,7-dihydro-1H-imidazo[4,5-c]pyridin-5(4H)-yl)methanone] | 1000 to 5000
COc1ccc(-c2nnc(C(=O)N3CCc4[nH]cnc4[C@@H]3c3cc4cccc(F)n4n3)o2)nc1 [Example 1524, (R)-(4-(7-fluoropyrazolo[1,5-a]pyridin-2-yl)-6,7-dihydro-1H-imidazo[4,5-c]pyridin-5(4H)-yl)(5-(5-methoxypyridin-2-yl)-1,3,4-oxadiazol-2-yl)methanone] | > 5000
Cc1cccn2nc([C@H]3c4nc[nH]c4CCN3C(=O)c3nnc(-c4cnn(C5CCC5)c4)o3)cc12 [Example 1039, (R)-(5-(1-cyclobutyl-1H-pyrazol-4-yl)-1,3,4-oxadiazol-2-yl)(4-(4-methylpyrazolo[1,5-a]pyridin-2-yl)-6,7-dihydro-1H-imidazo[4,5-c]pyridin-5(4H)-yl)methanone] | > 5000
Cn1ccc(-c2nnc(C(=O)N3CCc4[nH]cnc4[C@H]3c3cc4cccc(C(F)F)n4n3)o2)n1 [Example 1438, (S)-(4-(7-(difluoromethyl)pyrazolo[1,5-a]pyridin-2-yl)-6,7-dihydro-1H-imidazo[4,5-c]pyridin-5(4H)-yl)(5-(1-methyl-1H-pyrazol-3-yl)-1,3,4-oxadiazol-2-yl)methanone] | 500 to 1000
Cc1ncccc1-c1nnc(C(=O)N2CCc3[nH]cnc3[C@@H]2c2cc3c(C(F)F)cccn3n2)o1 [Example 1395, (R)-(4-(4-(difluoromethyl)pyrazolo[1,5-a]pyridin-2-yl)-6,7-dihydro-1H-imidazo[4,5-c]pyridin-5(4H)-yl)(5-(2-methylpyridin-3-yl)-1,3,4-oxadiazol-2-yl)methanone] | > 5000
